Data from patent publication US8062996B2, “Plant glutamate receptors” (priority 1995, dated 2011).

Experiments:
[1] = tested on: Arabidopsis; test: Plant growth assay: root length on vertical tissue culture plates; type: in vivo
Method: Arabidopsis seeds were grown on MS+3% sucrose vertical tissue culture plates containing various amounts of kainate (FIG. 11A) or DNQX (FIG. 11B), with (white bars) or without (black bars) glutamate supplementation. The effects of each drug on plant growth were assayed by measuring root length after two week. The results were discussed in text.
The following assay may be utilized in order to screen drugs for their effects on plant growth mediated by the GluR. Arabidopsis seedlings expressing or overexpressing the GluR are treated with the potential agonist or antagonist. In this plant growth assay, Arabidopsis seeds are plated on tissue culture plates in MS Medium (Murashige and Skoog Salt Mixture-plant basic medium available from Gibco (BRL)). A dose-response curve is determined using various concentrations of the potential agonist or antagonist added to the medium. The plants are grown vertically in a growth chamber at 22° C. with a 16 hour light/8 hour dark cycle for two weeks. The effects of each herbicide on plant growth is assessed by measuring root length on vertical tissue culture plates.
A dose-response curve using various concentrations of KA or DNQX was performed and the effects of each drug on plant growth was determined by measuring root length on vertical tissue culture plates (see FIG. 11).

[2] = tested on: ASN1 mRNA; test: ASN1 mRNA levels by Northern blot (relief of sucrose repression); type: in vivo, Arabidopsis; conditions: for relief of sucrose repression of ASN1 mRNA: 3% sucrose, dark 2 d; for induction of ASN1 mRNA: average of two Northern blot experiments, densitometry
Method: FIG. 12A. Arabidopsis seeds were grown on plates containing MS medium plates 3% (w/v) Suc under 16-h light/8-h dark cycle for 2-3 weeks. The plants were then transferred to media described below and grown in complete darkness for 2d. All samples containing 3% sucrose except for lane 2. MS was supplemented with kainate (lane 4:0.3 mM and lane 5: 0.03 mM), 0.05% (w/v) glutamate (lanes 6 and 7), and 10 μM DNQX (lanes 7 and 8). The expression of ASN1 and a control gene were detected by northern analyses on duplicate blots (under high-stringency conditions in 50% [v/v] formamide-solution), 20 μg of total RNA was used for each lane.
FIG. 12B. Quantitation of the Northern blot results in (A) by densitometry scan.
FIG. 12C. Average folds of induction in two Northern blot experiments.
The ability of a iGluR agonist to mimic the glutamate-stimulated expression of nitrogen assimilatory genes in Arabidopsis was tested using low concentrations of agonist KA and monitoring ASN1 mRNA levels as a measure of gene induction by KA.
ASN1 mRNA accumulates to high levels specifically in dark-treated plants (FIG. 12A, lane 2), and is repressed by light (FIG. 12A, lane 1) or sucrose (FIG. 12A, lane 3). […] ASN1 mRNA levels are determined by Northern blot analysis.

[3] = tested on: Arabidopsis; test: Germination of Arabidopsis in the dark; type: in vivo
Excerpt: FIG. 23. Effects of kainate of germination of Arabidopsis in the dark.
Kainate inhibition of germination in the dark is reversed by glutamate. Plants germinated in the dark on “normal” MS media (MS) as a positive control. Kainate, the iGluR agonist, causes a specific inhibition of germination of plants grown in MS media containing KA. The inhibition of germination by KA is reversed by the addition of glutamate to the media (MS+KA+Glu) (FIG. 23). Germination involves a light signal. Dark-grown seedlings are sown in the light and transferred to the dark. […] High doses of KA an agonist of iGluR in animals functions as a neurotoxin.
The effects of kainate on germination of Arabidopsis in the dark was determined.

[4] = tested on: Arabidopsis wild-type seedlings; test: Survival of wild-type seedlings on high-dose kainate; type: in vivo; conditions: 12 mM kainate
Method: FIGS. 28A and 28B. Selection of Arabidopsis mutants resistant to the iGluR agonist Kainate. […] This is not unexpected as high doses of the iGluR agonist kainate function as a neurotoxin in animals. Arabidopsis mutants with putative defects in the KA binding site of iGluR were selected for the ability to grow in the presence of 12 mM kainate. […] Note the one KA-resistant plant is enlarged in FIG. 28B.
Arabidopsis mutants resistant to the iGluR agonist Kainate were selected. […] This is not unexpected as high doses of the iGluR agonist kainate function as a neurotoxin in animals. Arabidopsis mutants with putative defects in the KA binding site of iGluR were selected by selecting for mutants able to grow in the presence of 12 mM kainate. The ems mutagenized Arabidopsis M2 seedlings were sown on 12 mM kainate. Note the one KA-resistant plant is enlarged in FIG. 28B.

SMILES	root growth ([1]; high concentrations of agonist or antagonist, without glutamate)	effect of high doses on root growth with glutamate supplementation ([1]; high doses plus glutamate)	effect on plant growth (root length) ([1]; low concentrations, 0 to 0.3 mM KA, two weeks)	relief of sucrose repression of ASN1 mRNA ([2]; KA 300 uM and 30 μM)	induction of ASN1 mRNA [2]	germination of dark-grown seedlings ([3]; kainate 200-400 uM)	inhibition of germination with glutamate supplementation ([3]; kainate plus glutamate in growth media)	lethality to wild-type seedlings [4]	relief of sucrose repression of ASN1 mRNA ([2]; 0.05% (w/v) glutamate)
C=C(C)[C@H]1CN[C@H](C(=O)O)[C@H]1CC(=O)O [KA, kainic acid]	reduction in root growth	at least partially reversed by glutamate supplementation	no adverse effects on plant growth	able to relieve the sucrose repression of ASN1 mRNA	roughly 2 fold	significant inhibition of germination	specifically reversed by the supplementation of glutamate	kill wild-type seedlings	–
N[C@@H](CCC(=O)O)C(=O)O [glutamate]	–	–	–	–	roughly 2 fold	–	–	–	able to partially relieve this sucrose repression
